# Source: patent publication US20260308186A1, “STAT DEGRADERS AND USES THEREOF” (Recludix Pharma, Inc., priority 2023, published 2026)
# Where two headings read alike, the source gives them in different places.
# How the values were obtained:
# pSTAT3 = molecular target: T1, pSTAT3 (Homo sapiens, UniProt P40763); assay: MSD-pSTAT-PBMC Assay, pSTAT3 (IL-6 stimulated PBMC); type: cell-based
# T1 construct: pY705-STAT3 MSD read-out
# Description: Cryopreserved Peripheral Blood Mononuclear Cells (PBMC) are from AllCells. Recombinant Human IL-4 and IL-6 are from Peprotech. Mouse monoclonal anti-STAT3 antibody, rabbit monoclonal anti-pY705-STAT3 antibody, rabbit monoclonal Anti-pY641-STAT6 antibody, and lysis buffer are from Cell Signaling Technology (CST). Mouse monoclonal anti-STAT6 antibody is from BioLegend. Assay plates, blocker, and anti-rabbit secondary antibody are from Meso Scale Discovery (MSD).
# Cryopreserved PBMCs were thawed out and allowed to recover overnight in IMDM+10% heat-inactivated FBS prior to plating 50,000 (STAT3) or 25,000 (STAT6) cells per well in 96-well U-bottom tissue culture plates. Cells were treated with compound for 3 hrs. then stimulated with 10 ng/mL IL-6 (STAT3) or 1 ng/mL IL-4 (STAT6) for 10 min. Cells were then spun down and washed with ice-cold PBS prior to lysing the cell pellet with 1× lysis buffer (CST) with 1×HALT protease and phosphatase inhibitor cocktail (Thermo). Lysates were transferred to and incubated overnight at 4° C. with shaking in QuickPlex 96-well high bind assay plates (MSD) pre-coated overnight with 30 μL per well of 0.6 μg/mL mouse monoclonal anti-STAT3 antibody (STAT3) or 2 μg/mL mouse monoclonal anti-STAT6 antibody (STAT6) in 1×PBS, and pre-blocked for 1 hour with 3% Blocker-A (MSD). Captured protein in the assay plates were then washed and probed with 25 μL per well of 0.25 μg/ml rabbit monoclonal anti-pY705-STAT3 antibody (STAT3) or 0.18 μg/ml rabbit monoclonal Anti-pY641-STAT6 antibody (STAT6) in 1% Blocker-A for 1 hour at room temperature with shaking, then washed and probed with 25 ul per well of 1 ug/ml Sulfo-TAG Labeled Goat Anti-Rabbit Antibody (MSD) in 1% Blocker-A for 1 hour at room temperature with shaking. Assay plates were then washed and 150 μL of 1× Read Buffer-T (MSD) was added to each well prior to reading on an SQ120 MSD Plate Reader. Assay signal from each sample was subtracted by the signal from unstimulated control wells and normalized to DMSO control wells. IC50 values were calculated using Graph Pad Prism Dose-Response Nonlinear Regression with variable slope. For both pSTAT3 and pSTAT6 A=≤100 nM; B=>100-1000 nM; C=>1000-3000 nM; and D=>3 μM.
# pSTAT6 = molecular target: T2, pSTAT6 (Homo sapiens, UniProt P42226); assay: MSD-pSTAT-PBMC Assay, pSTAT6 (IL-4 stimulated PBMC); type: cell-based
# T2 construct: pY641-STAT6 MSD read-out
# T2 sequence (P42226 1-847): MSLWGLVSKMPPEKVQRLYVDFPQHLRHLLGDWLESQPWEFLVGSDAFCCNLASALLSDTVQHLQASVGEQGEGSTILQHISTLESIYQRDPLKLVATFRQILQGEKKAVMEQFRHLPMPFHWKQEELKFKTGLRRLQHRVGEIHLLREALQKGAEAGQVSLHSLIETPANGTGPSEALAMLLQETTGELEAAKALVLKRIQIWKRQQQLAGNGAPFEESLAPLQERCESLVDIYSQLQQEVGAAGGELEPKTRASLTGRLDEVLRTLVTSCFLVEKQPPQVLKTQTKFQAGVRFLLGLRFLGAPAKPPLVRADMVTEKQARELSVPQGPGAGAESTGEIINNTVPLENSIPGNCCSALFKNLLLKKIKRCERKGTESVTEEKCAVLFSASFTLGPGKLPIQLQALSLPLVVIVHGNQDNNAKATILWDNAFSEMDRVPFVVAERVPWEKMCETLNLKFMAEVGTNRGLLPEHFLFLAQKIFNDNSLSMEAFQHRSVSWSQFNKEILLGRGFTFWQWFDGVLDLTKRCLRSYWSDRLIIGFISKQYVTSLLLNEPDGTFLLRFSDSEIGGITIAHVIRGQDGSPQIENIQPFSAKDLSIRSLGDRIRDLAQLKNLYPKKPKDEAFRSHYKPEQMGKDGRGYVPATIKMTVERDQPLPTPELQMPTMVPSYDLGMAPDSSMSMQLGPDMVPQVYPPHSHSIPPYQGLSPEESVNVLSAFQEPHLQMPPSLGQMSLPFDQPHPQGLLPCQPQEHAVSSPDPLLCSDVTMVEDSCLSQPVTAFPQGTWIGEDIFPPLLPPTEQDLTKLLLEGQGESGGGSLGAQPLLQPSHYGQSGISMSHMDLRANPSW
# In short: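 Human PBMC were recovered overnight, treated 3 h with compound, then stimulated for 10 min with 10 ng/mL IL-6 (pSTAT3) or 1 ng/mL IL-4 (pSTAT6). Lysates were read by MSD sandwich immunoassay, with total STAT capture and pY705-STAT3 or pY641-STAT6 detection. Signal minus unstimulated wells was normalized to DMSO, and IC50 came from a variable-slope fit.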
# STAT3 = molecular target: T3, STAT3 (Homo sapiens, UniProt P40763); assay: STAT3 Fluorescence Polarization (FP) Assay; type: binding; settings: recombinant STAT3 25 nM; probe 5-FAM-GpYLPQTV-NH2 2 nM; 45 min, room temperature; read-out: STAT3 FP IC50
# T3 construct: Recombinant STAT3 protein (STAT3(G127-1722))
# T3 sequence (P40763 127-722 limits assumed): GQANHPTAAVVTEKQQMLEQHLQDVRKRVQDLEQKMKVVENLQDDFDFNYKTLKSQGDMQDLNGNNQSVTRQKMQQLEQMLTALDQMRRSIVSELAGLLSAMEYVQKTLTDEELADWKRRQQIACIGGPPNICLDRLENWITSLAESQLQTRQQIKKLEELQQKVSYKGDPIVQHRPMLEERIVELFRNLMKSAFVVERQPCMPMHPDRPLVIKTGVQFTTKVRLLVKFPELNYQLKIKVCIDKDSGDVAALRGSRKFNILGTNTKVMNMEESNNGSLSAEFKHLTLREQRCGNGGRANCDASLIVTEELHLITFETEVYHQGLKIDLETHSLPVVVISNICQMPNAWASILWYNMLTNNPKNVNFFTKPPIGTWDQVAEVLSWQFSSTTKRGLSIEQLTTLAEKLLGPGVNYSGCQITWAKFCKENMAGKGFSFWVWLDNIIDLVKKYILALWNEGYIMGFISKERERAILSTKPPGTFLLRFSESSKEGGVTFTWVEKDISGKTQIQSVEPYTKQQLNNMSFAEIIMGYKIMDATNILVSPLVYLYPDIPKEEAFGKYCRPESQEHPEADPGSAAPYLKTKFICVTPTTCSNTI
# STAT6 = molecular target: T4, STAT6 (Homo sapiens, UniProt P42226); assay: STAT6 Fluorescence Polarization (FP) Assay; type: binding; settings: recombinant STAT6(W123-T658) 250 nM; probe 5-FAM-Ap[…]-NH2 2 nM; 45 min, room temperature; read-out: STAT6 FP IC50
# T4 construct: Recombinant STAT6 protein (STAT6(W123-T658))
# T4 sequence (P42226 123-658): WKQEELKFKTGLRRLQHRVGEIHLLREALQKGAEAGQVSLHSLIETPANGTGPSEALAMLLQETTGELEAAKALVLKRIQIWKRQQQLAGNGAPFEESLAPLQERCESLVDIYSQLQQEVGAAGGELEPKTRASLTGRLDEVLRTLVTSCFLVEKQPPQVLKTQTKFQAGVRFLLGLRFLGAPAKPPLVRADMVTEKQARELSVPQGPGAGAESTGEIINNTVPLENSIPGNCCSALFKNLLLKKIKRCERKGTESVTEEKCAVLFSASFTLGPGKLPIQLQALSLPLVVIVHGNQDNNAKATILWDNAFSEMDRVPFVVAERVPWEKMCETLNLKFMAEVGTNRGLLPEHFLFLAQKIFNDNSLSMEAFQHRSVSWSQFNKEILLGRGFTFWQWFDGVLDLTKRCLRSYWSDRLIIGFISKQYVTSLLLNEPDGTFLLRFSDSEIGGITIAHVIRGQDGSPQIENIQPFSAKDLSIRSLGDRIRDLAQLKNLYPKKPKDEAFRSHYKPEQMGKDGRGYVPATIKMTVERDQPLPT
# In short: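 STAT6(W123-T658) at 250 nM plus 2 nM 5-FAM phosphotyrosine peptide probe in HEPES pH 7.4 buffer with 2 mM DTT, 1% DMSO final. Polarization read after 45 min at room temperature. IC50 from nonlinear regression of mP against log concentration.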
# [1] = read-out: pSTAT3 IC50, compound 3 hrs, then 10 ng/mL IL-6 for 10 min, pY705-STAT3
# [2] = read-out: pSTAT6 IC50, compound 3 hrs, then 1 ng/mL IL-4 for 10 min, pY641-STAT6
# [3] = compound 3 hrs, then 10 ng/mL IL-6 for 10 min, pY705-STAT3, read-out: pSTAT3 IC50
# T1 sequence (P40763 whole entry): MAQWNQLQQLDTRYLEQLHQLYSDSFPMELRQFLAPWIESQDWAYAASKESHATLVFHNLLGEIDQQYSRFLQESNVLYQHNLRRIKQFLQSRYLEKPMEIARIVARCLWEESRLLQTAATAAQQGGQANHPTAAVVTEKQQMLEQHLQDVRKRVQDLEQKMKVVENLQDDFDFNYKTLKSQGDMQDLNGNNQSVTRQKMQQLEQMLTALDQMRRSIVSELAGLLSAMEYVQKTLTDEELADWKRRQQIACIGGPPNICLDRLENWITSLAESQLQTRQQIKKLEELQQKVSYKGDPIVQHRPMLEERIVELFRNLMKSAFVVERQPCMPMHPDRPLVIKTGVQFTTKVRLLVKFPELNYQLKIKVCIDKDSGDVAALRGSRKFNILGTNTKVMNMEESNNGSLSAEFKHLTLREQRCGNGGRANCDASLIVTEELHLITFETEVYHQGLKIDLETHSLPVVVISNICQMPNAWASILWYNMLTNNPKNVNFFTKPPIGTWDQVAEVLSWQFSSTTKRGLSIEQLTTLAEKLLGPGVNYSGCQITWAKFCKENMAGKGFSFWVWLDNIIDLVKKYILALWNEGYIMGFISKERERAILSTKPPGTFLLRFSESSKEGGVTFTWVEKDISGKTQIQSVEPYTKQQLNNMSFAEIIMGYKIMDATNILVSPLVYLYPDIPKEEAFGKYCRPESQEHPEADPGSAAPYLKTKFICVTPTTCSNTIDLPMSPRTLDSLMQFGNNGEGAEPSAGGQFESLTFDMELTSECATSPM
IC50 (pSTAT3; [3]),"IC50 (pSTAT6; compound 3 hrs, then 1 ng/mL IL-4 for 10 min, pY641-STAT6, read-out: pSTAT6 IC50)",IC50 (STAT3),IC50 (STAT6),SMILES,IC50 (pSTAT3; [1]),IC50 (pSTAT6; [2])
–,–,–,–,"CCCC(=O)SCCOP(=O)(OCCSC(=O)CCC)C(F)(F)c1ccc2ccc(C(=O)N[C@H]3CN(C(=O)c4n[nH]c5ccc(C)cc45)CC[C@H]4CC[C@@H](C(=O)NCCCCCCCCC(=O)N[C@H](C(=O)N5C[C@H](O)C[C@H]5C(=O)N[C@@H](C)c5ccc(-c6scnc6C)cc5)C(C)(C)C)N4C3=O)cc2c1 [Compound 8, S,S′-((((difluoro(7-(((5S,8S,10aR)-8-((9-(((S)-1-((2S,4R)-4-hydroxy-2-(((S)-1-(4-(4-methylthiazol-5-yl)phenyl)ethyl)carbamoyl)pyrrolidin-1-yl)-3,3-dimethyl-1-oxobutan-2-yl)amino)-9-oxononyl)carbamoyl)-3-(5-methyl-1H-indazole-3-carbonyl)-6-oxodecahydropyrrolo[1,2-a][1,5]diazocin-5-yl)carbamoyl)naphthalen-2-yl)methyl)phosphoryl)bis(oxy))bis(ethane-2,1-diyl)) dibutanethioate]",> 3 µM,1 to 3 µM
–,–,–,–,"CCCC(=O)SCCOP(=O)(OCCSC(=O)CCC)C(F)(F)c1ccc2ccc(C(=O)N[C@H]3CN(C(=O)c4n[nH]c5ccc(C)cc45)CC[C@H]4CC[C@@H](C(=O)NCCCCCCC#Cc5cccc6c5CN(C5CCC(=O)NC5=O)C6=O)N4C3=O)cc2c1 (stereo partly drawn) [Compound 10, S,S′-(((((7-(((5S,8S,10aR)-8-((8-(2-(2,6-dioxopiperidin-3-yl)-1-oxoisoindolin-4-yl)oct-7-yn-1-yl)carbamoyl)-3-(5-methyl-1H-indazole-3-carbonyl)-6-oxodecahydropyrrolo[1,2-a][1,5]diazocin-5-yl)carbamoyl)naphthalen-2-yl)difluoromethyl)phosphoryl)bis(oxy))bis(ethane-2,1-diyl)) dibutanethioate]",> 3 µM,< 0.1 µM
–,–,–,–,"CCCC(=O)SCCOP(=O)(OCCSC(=O)CCC)C(F)(F)c1ccc2ccc(C(=O)N[C@H]3CN(C(=O)c4n[nH]c5ccc(C)cc45)CC[C@H]4CC[C@@H](C(=O)N(C)CCCCCCC#Cc5cccc6c5CN(C5CCC(=O)NC5=O)C6=O)N4C3=O)cc2c1 (stereo partly drawn) [Compound 12, S,S′-(((((7-(((5S,8S,10aR)-8-((8-(2-(2,6-dioxopiperidin-3-yl)-1-oxoisoindolin-4-yl)oct-7-yn-1-yl)(methyl)carbamoyl)-3-(5-methyl-1H-indazole-3-carbonyl)-6-oxodecahydropyrrolo[1,2-a][1,5]diazocin-5-yl)carbamoyl)naphthalen-2-yl)difluoromethyl)phosphoryl)bis(oxy))bis(ethane-2,1-diyl)) dibutanethioate]",> 3 µM,< 0.1 µM
–,–,–,–,"CCCOC(=O)[C@H](C)NP(=O)(Oc1ccccc1)C(F)c1ccc2ccc(C(=O)N[C@H]3CN(C(=O)c4n[nH]c5ccc(C)cc45)CC[C@H]4CC[C@@H](C(=O)N(C)CCCCCCC#Cc5cccc6c5CN(C5CCC(=O)NC5=O)C6=O)N4C3=O)cc2c1 (stereo partly drawn) [Compound 13, propyl (((7-(((5S,8S,10aR)-8-((8-(2-(2,6-dioxopiperidin-3-yl)-1-oxoisoindolin-4-yl)oct-7-yn-1-yl)(methyl)carbamoyl)-3-(5-methyl-1H-indazole-3-carbonyl)-6-oxodecahydropyrrolo[1,2-a][1,5]diazocin-5-yl)carbamoyl)naphthalen-2-yl)fluoromethyl)(phenoxy)phosphoryl)-L-alaninate]",> 3 µM,> 3 µM
> 3 µM,< 0.1 µM,–,–,"Cc1ccc2onc(C(=O)N3CC[C@H]4CC[C@@H](C(=O)N(C)CCCCCCC#Cc5cccc6c5CN(C5CCC(=O)NC5=O)C6=O)N4C(=O)[C@@H](NC(=O)c4ccc5ccc(C(F)(F)P(=O)(OCCSC(=O)CC(C)C)OCCSC(=O)CC(C)C)cc5c4)C3)c2c1 (stereo partly drawn) [Compound 21, S,S′-(((((7-(((5S,8S,10aR)-8-((8-(2-(2,6-dioxopiperidin-3-yl)-1-oxoisoindolin-4-yl)oct-7-yn-1-yl)(methyl)carbamoyl)-3-(5-methylbenzo[d]isoxazole-3-carbonyl)-6-oxodecahydropyrrolo[1,2-a][1,5]diazocin-5-yl)carbamoyl)naphthalen-2-yl)difluoromethyl)phosphoryl)bis(oxy))bis(ethane-2,1-diyl)) bis(3-methylbutanethioate)]",–,–
0.1 to 1 µM,–,< 0.1 µM,3 to 30 µM,"CN(C)c1ccncc1C1CN(C(=O)[C@@H]2CC[C@@H]3CCN(C(=O)CCCCCC#Cc4cccc5c4CN(C4CCC(=O)NC4=O)C5=O)C[C@H](NC(=O)c4cc5cc(C(F)(F)P(=O)(O)O)ccc5s4)C(=O)N32)C1 (stereo partly drawn) [Compound 39, ((2-(((5S,8S,10aR)-8-(3-(4-(dimethylamino)pyridin-3-yl)azetidine-1-carbonyl)-3-(8-(2-(2,6-dioxopiperidin-3-yl)-1-oxoisoindolin-4-yl)oct-7-ynoyl)-6-oxodecahydropyrrolo[1,2-a][1,5]diazocin-5-yl)carbamoyl)benzo[b]thiophen-5-yl)difluoromethyl)phosphonic acid]",–,–
